Source: article PMC9482650, “Quantitative fragmentomics allow affinity mapping of interactomes” (Nature Communications, 2022)
Ends that are not written are not given here.

What was measured:
Assay type in all cases: binding
TX1BP3 PDZ = target: T1, TX1BP3 PDZ (Homo sapiens, UniProt O14907); assay: Holdup assay; conditions: composite holdup affinity; 0.00=below quantification threshold; read-out: COMP pKd (converted)
T1 sequence (O14907 15-112 limits assumed): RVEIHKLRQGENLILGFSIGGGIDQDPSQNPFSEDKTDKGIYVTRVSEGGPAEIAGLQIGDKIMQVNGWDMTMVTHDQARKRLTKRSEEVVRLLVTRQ

LNX2_2 PDZ = LNX2_2 PDZ (Homo sapiens, UniProt Q8N448); assay: Holdup assay; conditions: composite holdup affinity; 0.00=below quantification threshold; read-out: COMP pKd (converted)
Sequence of LNX2_2 PDZ (Q8N448 339-422 limits assumed): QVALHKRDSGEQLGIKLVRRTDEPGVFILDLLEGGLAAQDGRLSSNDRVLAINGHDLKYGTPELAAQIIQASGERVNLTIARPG

DLG1_1 PDZ = DLG1_1 PDZ (Homo sapiens, UniProt Q12959); assay: Holdup assay; conditions: composite holdup affinity; 0.00=below quantification threshold; read-out: COMP pKd (converted)
RHPN1 PDZ = RHPN1 PDZ (Homo sapiens, UniProt Q8TCX5); assay: Holdup assay; conditions: composite holdup affinity; 0.00=below quantification threshold; read-out: COMP pKd (converted)
Sequence of RHPN1 PDZ (Q8TCX5 513-592 limits assumed): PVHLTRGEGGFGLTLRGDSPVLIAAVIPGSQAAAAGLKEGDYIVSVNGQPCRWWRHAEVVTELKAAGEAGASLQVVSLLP

DLG1_2 PDZ = DLG1_2 PDZ (Homo sapiens, UniProt Q12959); assay: Holdup assay; conditions: composite holdup affinity; 0.00=below quantification threshold; read-out: COMP pKd (converted)
DLG2_1 PDZ = DLG2_1 PDZ (Homo sapiens, UniProt Q15700); assay: Holdup assay; conditions: sheet PPI_convert; read-out: affinity to PDZ DLG2_1 (converted)
Sequence of DLG2_1 PDZ (Q15700 98-184): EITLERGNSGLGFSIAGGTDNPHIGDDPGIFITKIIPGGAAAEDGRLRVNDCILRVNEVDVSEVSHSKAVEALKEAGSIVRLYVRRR

DLG4_1 PDZ = DLG4_1 PDZ (Homo sapiens, UniProt P78352); assay: Holdup assay; conditions: composite holdup affinity; 0.00=below quantification threshold; read-out: COMP pKd (converted)
Sequence of DLG4_1 PDZ (P78352 65-151): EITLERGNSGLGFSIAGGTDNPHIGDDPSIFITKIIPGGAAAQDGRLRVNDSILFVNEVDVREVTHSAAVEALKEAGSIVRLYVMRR

DLG1_3 PDZ = DLG1_3 PDZ (Homo sapiens, UniProt Q12959); assay: Holdup assay; conditions: composite holdup affinity; 0.00=below quantification threshold; read-out: COMP pKd (converted)
SCRIB2 PDZ = target: T2, SCRIB2 PDZ (Homo sapiens, UniProt Q14160); assay: Holdup assay; conditions: composite holdup affinity; 0.00=below quantification threshold; read-out: COMP pKd (converted)
T2 sequence (Q14160 862-950 limits assumed): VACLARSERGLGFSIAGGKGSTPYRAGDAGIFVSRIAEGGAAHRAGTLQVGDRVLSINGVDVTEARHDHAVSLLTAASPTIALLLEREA

GRIP2_7 PDZ = GRIP2_7 PDZ (Homo sapiens, UniProt Q9C0E4); assay: Holdup assay; conditions: composite holdup affinity; 0.00=below quantification threshold; read-out: COMP pKd (converted)
Sequence of GRIP2_7 PDZ (Q9C0E4 941-1023 limits assumed): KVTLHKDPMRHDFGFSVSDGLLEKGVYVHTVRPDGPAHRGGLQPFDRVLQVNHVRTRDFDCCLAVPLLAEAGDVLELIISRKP

MAGI3_2 PDZ = MAGI3_2 PDZ (Homo sapiens, UniProt Q5TCQ9); assay: Holdup assay; conditions: composite holdup affinity; 0.00=below quantification threshold; read-out: COMP pKd (converted)
Sequence of MAGI3_2 PDZ (Q5TCQ9 410-492 limits assumed): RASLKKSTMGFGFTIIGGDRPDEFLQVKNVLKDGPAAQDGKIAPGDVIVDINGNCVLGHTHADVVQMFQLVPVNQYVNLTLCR

SYNJ2BP PDZ = target: T3, SYNJ2BP PDZ (Homo sapiens, UniProt P57105); assay: Holdup assay; conditions: composite holdup affinity; 0.00=below quantification threshold; read-out: COMP pKd (converted)
T3 sequence (P57105 13-100 limits assumed): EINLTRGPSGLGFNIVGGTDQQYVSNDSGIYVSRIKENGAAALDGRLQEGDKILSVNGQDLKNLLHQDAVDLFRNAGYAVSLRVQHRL

APBA1_2 PDZ = APBA1_2 PDZ (Homo sapiens, UniProt Q02410); assay: Holdup assay; conditions: composite holdup affinity; 0.00=below quantification threshold; read-out: COMP pKd (converted)
Sequence of APBA1_2 PDZ (Q02410 747-822 limits assumed): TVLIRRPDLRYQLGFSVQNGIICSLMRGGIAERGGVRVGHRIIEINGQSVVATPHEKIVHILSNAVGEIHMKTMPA

MAGI1_2 PDZ = MAGI1_2 PDZ (Homo sapiens, UniProt Q96QZ7); assay: biochemical; conditions: composite holdup affinity; 0.00=below quantification threshold; read-out: COMP pKd (converted)
Sequence of MAGI1_2 PDZ (Q96QZ7 472-554 limits assumed): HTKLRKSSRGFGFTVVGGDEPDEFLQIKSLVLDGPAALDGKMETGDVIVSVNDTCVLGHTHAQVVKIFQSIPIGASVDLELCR

LAP2 PDZ = LAP2 PDZ (Homo sapiens, UniProt Q96RT1); assay: Holdup assay; conditions: composite holdup affinity; 0.00=below quantification threshold; read-out: COMP pKd (converted)
Sequence of LAP2 PDZ (Q96RT1 1321-1410 limits assumed): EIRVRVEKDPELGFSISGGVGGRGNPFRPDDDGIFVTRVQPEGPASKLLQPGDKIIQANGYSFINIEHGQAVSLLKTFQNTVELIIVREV

NOS1 PDZ = NOS1 PDZ (Homo sapiens, UniProt P29475); assay: Holdup assay; conditions: composite holdup affinity; 0.00=below quantification threshold; read-out: COMP pKd (converted)
Sequence of NOS1 PDZ (P29475 17-99 limits assumed): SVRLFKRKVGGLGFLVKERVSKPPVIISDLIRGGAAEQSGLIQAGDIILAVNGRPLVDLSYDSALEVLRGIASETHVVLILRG

DLG3_1 PDZ = DLG3_1 PDZ (Homo sapiens, UniProt Q92796); assay: Holdup assay; conditions: composite holdup affinity; 0.00=below quantification threshold; read-out: COMP pKd (converted)
Sequence of DLG3_1 PDZ (Q92796 130-217 limits assumed): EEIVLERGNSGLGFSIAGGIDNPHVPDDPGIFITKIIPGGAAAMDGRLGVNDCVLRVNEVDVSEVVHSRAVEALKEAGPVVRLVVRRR

SNTA1 PDZ = SNTA1 PDZ (Homo sapiens, UniProt Q13424); assay: Holdup assay; conditions: composite holdup affinity; 0.00=below quantification threshold; read-out: COMP pKd (converted)
Sequence of SNTA1 PDZ (Q13424 87-170 limits assumed): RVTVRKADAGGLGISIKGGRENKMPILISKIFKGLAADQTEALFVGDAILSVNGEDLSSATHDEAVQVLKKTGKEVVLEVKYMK

SNTG1 PDZ = SNTG1 PDZ (Homo sapiens, UniProt Q9NSN8); assay: Holdup assay; conditions: composite holdup affinity; 0.00=below quantification threshold; read-out: COMP pKd (converted)
Sequence of SNTG1 PDZ (Q9NSN8 57-140 limits assumed): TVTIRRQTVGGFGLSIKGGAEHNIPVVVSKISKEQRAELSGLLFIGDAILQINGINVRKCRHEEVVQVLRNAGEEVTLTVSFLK

DLG3_2 PDZ = DLG3_2 PDZ (Homo sapiens, UniProt Q92796); assay: Holdup assay; conditions: composite holdup affinity; 0.00=below quantification threshold; read-out: COMP pKd (converted)
Sequence of DLG3_2 PDZ (Q92796 226-311 limits assumed): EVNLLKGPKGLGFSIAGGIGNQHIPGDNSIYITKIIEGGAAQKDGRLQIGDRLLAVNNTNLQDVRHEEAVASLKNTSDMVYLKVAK

PDZD2_2 PDZ = PDZD2_2 PDZ (Homo sapiens, UniProt O15018); assay: Holdup assay; conditions: composite holdup affinity; 0.00=below quantification threshold; read-out: COMP pKd (converted)
Sequence of PDZD2_2 PDZ (O15018 334-419 limits assumed): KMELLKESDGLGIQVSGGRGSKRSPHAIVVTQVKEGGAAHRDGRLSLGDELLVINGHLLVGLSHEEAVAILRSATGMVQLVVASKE

MAST1 PDZ = MAST1 PDZ (Homo sapiens, UniProt Q9Y2H9); assay: Holdup assay; conditions: composite holdup affinity; 0.00=below quantification threshold; read-out: COMP pKd (converted)
Sequence of MAST1 PDZ (Q9Y2H9 967-1055 limits assumed): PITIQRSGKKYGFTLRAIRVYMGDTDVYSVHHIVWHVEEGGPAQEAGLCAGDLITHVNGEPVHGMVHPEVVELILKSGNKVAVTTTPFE

PDZD7_3 PDZ = PDZD7_3 PDZ (Homo sapiens, UniProt Q9H5P4); assay: Holdup assay; conditions: composite holdup affinity; 0.00=below quantification threshold; read-out: COMP pKd (converted)
Sequence of PDZD7_3 PDZ (Q9H5P4 862-934 limits assumed): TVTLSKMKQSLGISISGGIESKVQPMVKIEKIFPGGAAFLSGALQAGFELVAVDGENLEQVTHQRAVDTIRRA

PDZRN4_1 PDZ = PDZRN4_1 PDZ (Homo sapiens, UniProt Q6ZMN7); assay: Holdup assay; conditions: composite holdup affinity; 0.00=below quantification threshold; read-out: COMP pKd (converted)
Sequence of PDZRN4_1 PDZ (Q6ZMN7 224-314 limits assumed): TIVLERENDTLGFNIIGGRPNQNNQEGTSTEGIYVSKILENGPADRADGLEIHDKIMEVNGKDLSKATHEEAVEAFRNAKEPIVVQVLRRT

PDZRN3_1 PDZ = PDZRN3_1 PDZ (Homo sapiens, UniProt Q9UPQ7); assay: Holdup assay; conditions: composite holdup affinity; 0.00=below quantification threshold; read-out: COMP pKd (converted)
Sequence of PDZRN3_1 PDZ (Q9UPQ7 249-339 limits assumed): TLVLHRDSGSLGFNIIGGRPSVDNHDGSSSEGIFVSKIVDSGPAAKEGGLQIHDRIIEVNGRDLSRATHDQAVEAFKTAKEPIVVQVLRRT

ARHGEF12 PDZ = ARHGEF12 PDZ (Homo sapiens, UniProt Q9NZN5); assay: Holdup assay; conditions: composite holdup affinity; 0.00=below quantification threshold; read-out: COMP pKd (converted)
Sequence of ARHGEF12 PDZ (Q9NZN5 72-151 limits assumed): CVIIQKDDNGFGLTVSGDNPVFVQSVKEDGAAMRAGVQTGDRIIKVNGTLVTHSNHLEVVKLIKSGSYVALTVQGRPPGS

MAGI2_4 PDZ = MAGI2_4 PDZ (Homo sapiens, UniProt Q86UL8); assay: Holdup assay; conditions: composite holdup affinity; 0.00=below quantification threshold; read-out: COMP pKd (converted)
Sequence of MAGI2_4 PDZ (Q86UL8 778-860 limits assumed): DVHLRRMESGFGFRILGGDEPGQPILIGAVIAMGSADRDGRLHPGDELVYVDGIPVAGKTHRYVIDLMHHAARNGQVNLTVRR

GOPC PDZ = GOPC PDZ (Homo sapiens, UniProt Q9HD26); assay: Holdup assay; conditions: composite holdup affinity; 0.00=below quantification threshold; read-out: COMP pKd (converted)
DLG2_2 PDZ = DLG2_2 PDZ (Homo sapiens, UniProt Q15700); assay: Holdup assay; conditions: composite holdup affinity; 0.00=below quantification threshold; read-out: COMP pKd (converted)
Sequence of DLG2_2 PDZ (Q15700 193-279 limits assumed): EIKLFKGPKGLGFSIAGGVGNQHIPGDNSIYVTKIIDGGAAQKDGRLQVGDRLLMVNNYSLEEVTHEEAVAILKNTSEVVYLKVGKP

NHERF3_1 PDZ = NHERF3_1 PDZ (Homo sapiens, UniProt Q5T2W1); assay: Holdup assay; conditions: composite holdup affinity; 0.00=below quantification threshold; read-out: COMP pKd (converted)
Sequence of NHERF3_1 PDZ (Q5T2W1 9-90 limits assumed): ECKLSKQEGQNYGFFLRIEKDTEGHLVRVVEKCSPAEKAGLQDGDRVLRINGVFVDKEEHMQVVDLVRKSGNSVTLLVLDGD

GIPC1 PDZ = GIPC1 PDZ (Homo sapiens, UniProt O14908); assay: Holdup assay; conditions: sheet PPI_convert; read-out: affinity to PDZ GIPC1 (converted)
Sequence of GIPC1 PDZ (O14908 133-213 limits assumed): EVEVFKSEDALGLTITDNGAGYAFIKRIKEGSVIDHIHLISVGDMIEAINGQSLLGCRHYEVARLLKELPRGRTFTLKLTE
Excerpt: Supplement 41467_2022_33018_MOESM4_ESM.xlsx, sheet "PPI_convert" | column: GIPC1

MAGI2_3 PDZ = MAGI2_3 PDZ (Homo sapiens, UniProt Q86UL8); assay: Holdup assay; conditions: composite holdup affinity; 0.00=below quantification threshold; read-out: COMP pKd (converted)
Sequence of MAGI2_3 PDZ (Q86UL8 605-683 limits assumed): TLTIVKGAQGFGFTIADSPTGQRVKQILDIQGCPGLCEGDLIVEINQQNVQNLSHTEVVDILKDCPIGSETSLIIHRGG

GIPC2 PDZ = GIPC2 PDZ (Homo sapiens, UniProt Q8TF65); assay: Holdup assay; conditions: composite holdup affinity; 0.00=below quantification threshold; read-out: COMP pKd (converted)
Sequence of GIPC2 PDZ (Q8TF65 117-197 limits assumed): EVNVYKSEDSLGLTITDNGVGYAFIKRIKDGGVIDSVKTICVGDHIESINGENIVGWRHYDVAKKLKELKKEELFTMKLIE

ARHGEF11 PDZ = ARHGEF11 PDZ (Homo sapiens, UniProt O15085); assay: Holdup assay; conditions: composite holdup affinity; 0.00=below quantification threshold; read-out: COMP pKd (converted)
Sequence of ARHGEF11 PDZ (O15085 47-126 limits assumed): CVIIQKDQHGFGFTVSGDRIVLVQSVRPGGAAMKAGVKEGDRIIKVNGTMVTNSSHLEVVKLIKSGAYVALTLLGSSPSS

DFNB31_1 PDZ = DFNB31_1 PDZ (Homo sapiens, UniProt Q9P202); assay: Holdup assay; conditions: composite holdup affinity; 0.00=below quantification threshold; read-out: COMP pKd (converted)
Sequence of DFNB31_1 PDZ (Q9P202 140-223 limits assumed): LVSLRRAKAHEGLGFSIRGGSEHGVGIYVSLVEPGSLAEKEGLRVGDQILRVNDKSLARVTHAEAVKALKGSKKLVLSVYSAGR

PTPN3 PDZ = PTPN3 PDZ (Homo sapiens, UniProt P26045); assay: Holdup assay; conditions: composite holdup affinity; 0.00=below quantification threshold; read-out: COMP pKd (converted)
Sequence of PTPN3 PDZ (P26045 510-582 limits assumed): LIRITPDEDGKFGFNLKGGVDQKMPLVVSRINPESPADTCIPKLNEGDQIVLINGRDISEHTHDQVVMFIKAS

Sequence | Kd (TX1BP3 PDZ) [µM] | Kd (LNX2_2 PDZ) [µM] | Kd (DLG1_1 PDZ) [µM] | Kd (RHPN1 PDZ) [µM] | Kd (DLG1_2 PDZ) [µM] | Kd (DLG2_1 PDZ) [µM] | Kd (DLG4_1 PDZ) [µM] | Kd (DLG1_3 PDZ) [µM] | Kd (SCRIB2 PDZ) [µM] | Kd (GRIP2_7 PDZ) [µM] | Kd (MAGI3_2 PDZ) [µM] | Kd (SYNJ2BP PDZ) [µM] | Kd (APBA1_2 PDZ) [µM] | Kd (MAGI1_2 PDZ) [µM] | Kd (LAP2 PDZ) [µM] | Kd (NOS1 PDZ) [µM] | Kd (DLG3_1 PDZ) [µM] | Kd (SNTA1 PDZ) [µM] | Kd (SNTG1 PDZ) [µM] | Kd (DLG3_2 PDZ) [µM] | other results
RHTTSTETAV [HPV30-E6] | 22.4 | 170 | 11.7 | 83.2 | 2.34 | 14.5 | 12 | 40.7 | 7.76 | 145 | 4.37 | 4.37 | 58.9 | 40.7 | 34.7 | 23.4 | 35.5 | 19.1 | 11.5 | 3.89 | Kd (PDZD2_2 PDZ): 38 µM; Kd (MAST1 PDZ): 21.9 µM; Kd (PDZD7_3 PDZ): 79.4 µM; Kd (PDZRN4_1 PDZ): 29.5 µM; Kd (PDZRN3_1 PDZ): 20.9 µM; Kd (ARHGEF12 PDZ): 63.1 µM; Kd (MAGI2_4 PDZ): 85.1 µM; Kd (GOPC PDZ): 72.4 µM; Kd (DLG2_2 PDZ): 6.46 µM; Kd (NHERF3_1 PDZ): 13.5 µM; Kd (GIPC1 PDZ): 20 µM; Kd (MAGI2_3 PDZ): 26.9 µM; Kd (GIPC2 PDZ): 110 µM; Kd (ARHGEF11 PDZ): 44.7 µM; Kd (DFNB31_1 PDZ): 53.7 µM; Kd (PTPN3 PDZ): 7.41 µM
RTRQRNETQV [HPV51-E6] | 74.1 | 245 | 16.6 | 200 | 7.41 | 8.71 | 12.6 | 28.8 | 40.7 | 331 | 1.48 | 9.55 | 275 | 1.17 | 204 | 123 | 52.5 | 58.9 | 105 | 7.94 | Kd (PDZD2_2 PDZ): 263 µM; Kd (MAST1 PDZ): 58.9 µM; Kd (PDZD7_3 PDZ): 132 µM; Kd (PDZRN4_1 PDZ): 69.2 µM; Kd (PDZRN3_1 PDZ): 87.1 µM; Kd (ARHGEF12 PDZ): 186 µM; Kd (MAGI2_4 PDZ): 39.8 µM; Kd (GOPC PDZ): 191 µM; Kd (DLG2_2 PDZ): 10.7 µM; Kd (NHERF3_1 PDZ): 67.6 µM; Kd (GIPC1 PDZ): 7.94 µM; Kd (MAGI2_3 PDZ): 95.5 µM; Kd (GIPC2 PDZ): 234 µM; Kd (ARHGEF11 PDZ): 204 µM; Kd (DFNB31_1 PDZ): 339 µM; Kd (PTPN3 PDZ): 41.7 µM
